Consider 24 compounds from patent US20110269763A1, “CRTH2 receptor ligands for medicinal uses” (7TM Pharma A/S, priority 2004, published 2011).

Bounds are passed on as bounds.

In experiment [1] the target is T1, human CRTH2 (Homo sapiens, UniProt Q9Y5Y4, V204A).
T1 sequence (Q9Y5Y4 1-395 V204A): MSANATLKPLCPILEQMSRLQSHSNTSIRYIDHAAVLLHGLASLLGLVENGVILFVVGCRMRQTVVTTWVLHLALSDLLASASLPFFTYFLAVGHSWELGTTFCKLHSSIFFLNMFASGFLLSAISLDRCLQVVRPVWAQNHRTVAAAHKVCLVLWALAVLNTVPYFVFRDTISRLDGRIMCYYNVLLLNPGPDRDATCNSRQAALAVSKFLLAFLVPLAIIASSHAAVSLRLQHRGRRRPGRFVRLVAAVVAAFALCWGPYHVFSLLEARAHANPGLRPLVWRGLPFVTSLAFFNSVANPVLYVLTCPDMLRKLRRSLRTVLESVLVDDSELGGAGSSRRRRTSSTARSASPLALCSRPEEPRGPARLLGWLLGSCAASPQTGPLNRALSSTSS
Kind of experiment: Functional antagonist BRET assay on HEK293 cells stably expressing human CRTH2-Rluc and GFP2-β-arr2. The following applies: read-out: Antag. IC50. Also noted: expressed in transfected cells. It counts as cell-based. The text has this: (§1) Generation/origin of the cDNA Constructs. The coding sequence of the human CRTH2 receptor (genbank accession no NM_004778) was amplified by PCR from a human hippocampus cDNA library and inserted into the pcDNA3.1(+) expression vector (invitrogen) via 5′ HindIII and 3′ EcoRI. To generate a CRTH2-Renilla luciferase (CRTH2-Rluc) fusion protein, the CRTH2 coding sequence without a STOP codon and Rluc were amplified, fused in frame by PCR and subcloned into the pcDNA3.1(+)Zeo expression vector (invitrogen). Human β-arrestin2 (β-arr2) N-terminally tagged with GFP^2 (βarr2-GFP^2) and Renilla luciferase were purchased from BioSignal Packard Inc, (Montreal, Canada). The sequence identity of the construct was verified by restriction endonuclease digests and sequencing in both directions on an ABI Prism (Applied Biosystems, Foster City, Calif.).
(§2) Cell Culture and Transfection. COS-7 cells were grown in Dulbecco's modified Eagle's medium (DMEM) 1885 supplemented with 10% fetal bovine serum, 100 units/ml penicillin, […] streptomycin, and kept at 37° C. in a 10% CO2 atmosphere. HEK293 cells were maintained in Minimum Essential medium (MEM) supplemented with 10% (v/v) heat inactivated fetal calf serum (HIFCS), 2 mM Glutamax™-I, 1% non essential amino acids (NEAA), 1% sodium pyruvate and 10 μg/ml gentamicin. For binding experiments, COS7 cells were transiently transfected with the CRTH2 receptor using a calcium phosphate-DNA coprecipitation method with the addition of chloroquine (as described by Holst et al., 2001↓). To perform the functional Bioluminescence Resonance Energy Transfer (BRET) assays, a HEK293 cell clone stably expressing βarr2-GFP^2 and CRTH2-Rluc was generated (CRTH2-HEK293 cells).
BRET assay. Functional BRET assays were performed on HEK293 cells stably expressing human CRTH2-Rluc and GFP^2-β-arr2. Prior to their use in the BRET assay cells were detached and re-suspended in D-PBS with 1000 mg/L L-Glucose at a density of 2×10^6 cells/mL. DeepBlueC™ was diluted to 50 μM in D-PBS with 1000 mg/L L-Glucose (light sensitive). 100 μL of cell suspension was transferred to wells in a 96-well microplate (white OptiPlate) and placed in the Mithras LB 940 instrument (BERTHOLD TECHNOLOGIES, Bad Wildbad, Germany). 12 μL/well agonist was then injected by injector 1 and 10 μL/well DeepBlueC™ was injected simultaneously by injector 2. Five seconds after the injections the light output from the well was measured sequentially at 400 nm and 515 nm, and the BRET signal (mBRET ratio) was calculated by the ratio of the fluorescence emitted by GFP^2-β-arr2 (515 nm) over the light emitted by the receptor-Rluc (400 nm). Antagonists were added before placing the microplates into the Mithras LB 940 and allowed to incubate for 15 minutes prior to the addition of agonist and DeepBlueC™. Compounds were dissolved in DMSO and the final DMSO concentration was kept constant at 1% in the assay.
(§3) Curve analysis was performed with the GraphPadPrism software 3.0 (Graphpad Prism Inc., San Diego, USA) and IC50 values were calculated as a measure of the antagonistic potencies.

The target of experiment [2] is T1, human CRTH2. Kind of experiment: Receptor binding assay: [3H]PGD2 competition binding on whole COS-7 cells transiently transfected with CRTH2 (also stable HEK293 cells). Also noted: expressed in transfected cells; host or cells: COS-7 (transient, calcium phosphate).
Text: as §1, §2
Binding assay. 24 h after transfection COS-7 cells were seeded into 96 well plates at a density of 30.000 cells/well. Competition binding experiments on whole cells were then performed about 18-24 h later using 0.1 nM [^3H]PGD2 (NEN, 172 Ci/mmol) in a binding buffer consisting of HBSS (GIBCO) and 10 mM HEPES. Competing ligands were diluted in DMSO which was kept constant at 1% (v/v) of the final incubation volume. Total and nonspecific binding were determined in the absence and presence of 10 μM PGD2. Binding reactions were routinely conducted for 3 h at 4° C. and terminated by 2 washes (100 μl each) with ice cold binding buffer. Radioactivity was determined by liquid scintillation counting in a TOPCOUNTER (Packard) following over night incubation in Microscint 20. Stable HEK293 cells were seeded at a density of 30.000 cells/well 18-24 h prior to the binding assay which was performed essentially as described for COS7 cells above. Determinations were made in duplicates.
as §3

Setting [3] is: BRET, antagonist incubated 15 minutes prior to agonist.
Setting [4] is: competition with 0.1 nM [3H]PGD2, whole cells, 3 h at 4° C.
Setting [5] is: functional antagonist assay, Table 3.
Setting [6] is: receptor binding assay, Table 3.

As for `O=C(O)COc1ccc(Br)cc1C(=O)c1cnn(-c2cccc(Cl)c2)c1` [D15, 4-Bromo-2-[1-(3-chloro-phenyl)-1H-pyrazole-4-carbonyl]phenoxyacetic acid], the IC50 at human CRTH2 [1] (setting [3]) and on human CRTH2 [2] (setting [4]) was < 0.5 µM throughout.
Consider `CC(Oc1ccc(Br)cc1C(=O)c1cnn(-c2ccccc2C(C)C)c1)C(=O)O` (centres unmarked) [D79, 2-{4-Bromo-2-[1-(2-isopropylphenyl)-1H-pyrazole-4-carbonyl]phenoxy}propionic acid], for which the IC50 on human CRTH2 [1] (setting [3]) and at human CRTH2 [2] (setting [4]) was < 0.5 µM in each case.
For the compound `CCc1ccc(OCC(=O)O)c(C(=O)c2cnn(-c3c(Cl)cccc3Cl)c2)c1` [D53, {2-[1-(2,6-Dichlorophenyl)-1H-pyrazole-4-carbonyl]-4-ethylphenoxy}acetic acid], the IC50 at human CRTH2 [1] (setting [3]) and on human CRTH2 [2] (setting [4]) was < 0.5 µM each time.
With `CC(Oc1ccc(Br)cc1C(=O)c1cnn(-c2c(Cl)cc(Cl)cc2Cl)c1)C(=O)O` (centres unmarked) [D68, 2-{4-Bromo-2-[1-(2,4,6-trichlorophenyl)-1H-pyrazole-4-carbonyl]phenoxy}propionic acid], the IC50 on human CRTH2 [1] (setting [3]) and on human CRTH2 [2] (setting [4]) was < 0.5 µM throughout.
For the compound `O=C(O)COc1ccc(Br)cc1C(=O)c1cnn(-c2ccccc2F)c1` [D22, 4-Bromo-2-[1-(2-fluorophenyl)-1H-pyrazole-4-carbonyl]phenoxyacetic acid], the IC50 at human CRTH2 [1] (setting [3]) and at human CRTH2 [2] (setting [4]) was < 0.5 µM throughout.
On to `CC(Oc1ccc(Br)cc1C(=O)c1cnn(-c2cc(Cl)ccc2Cl)c1)C(=O)O` (centres unmarked) [D63, 2-{4-Bromo-2-[1-(2,5-dichlorophenyl)-1H-pyrazole-4-carbonyl]phenoxy}propionic acid], for which the IC50 on human CRTH2 [1] (setting [3]) and on human CRTH2 [2] (setting [4]) was < 0.5 µM in each case.
With `O=C(O)COc1ccc(Br)cc1C(=O)c1cnn(-c2ccc(Cl)cc2)c1` [D17, 4-Bromo-2-[1-(4-chlorophenyl)-1H-pyrazole-4-carbonyl]phenoxyacetic acid], the IC50 on human CRTH2 [1] (setting [3]) and on human CRTH2 [2] (setting [4]) was < 0.5 µM each time.
Turning to `O=C(O)COc1ccc(Br)cc1-c1nc(-c2c(Cl)cccc2Cl)no1` [D110, {4-Bromo-2-[3-(2,6-dichlorophenyl)-[1,2,4]oxadiazol-5-yl]phenoxy}acetic acid], the IC50 on human CRTH2 [1] (setting [5]) and on human CRTH2 [2] (setting [6]) was < 0.5 µM throughout.
With `COc1ccc(-c2noc(-c3cc(Br)ccc3OCC(=O)O)n2)cc1` [D101, {4-Bromo-2-[3-(4-methoxy-phenyl)-[1,2,4]oxadiazol-5-yl]phenoxy}acetic acid], the IC50 on human CRTH2 [1] (setting [5]) and on human CRTH2 [2] (setting [6]) was < 0.5 µM throughout.
`Cc1ccc(-n2cc(C(=O)c3cc(Br)ccc3OC(C)C(=O)O)cn2)c(C)c1` (centres unmarked) [D55, 2-{4-Bromo-2-[1-(2,4-dimethylphenyl)-1H-pyrazole-4-carbonyl]phenoxy}propionic acid]: the IC50 on human CRTH2 [1] (setting [3]) and at human CRTH2 [2] (setting [4]) was < 0.5 µM each time.
As to `O=C(O)COc1ccccc1C=NNC(=O)c1ccnc(-c2ccccc2)c1` [D155], the results for the IC50 at human CRTH2 [1] (setting [3]) and at human CRTH2 [2] (setting [4]) were 0.5 to 5 µM and < 0.5 µM, respectively.
As to `O=C(O)COc1ccc(Br)cc1-c1nc(-c2ccc(Cl)cc2Cl)no1` [D129, {4-Bromo-2-[3-(2,4-dichlorophenyl)-[1,2,4]oxadiazol-5-yl]phenoxy}acetic acid], the IC50 at human CRTH2 [1] (setting [5]) and on human CRTH2 [2] (setting [6]) was < 0.5 µM in each case.
As for `COc1cccc(Cc2nc(-c3cc(Br)ccc3OCC(=O)O)co2)c1` [D89, {4-Bromo-2-[2-(3-methoxybenzyl)oxazol-4-yl]phenoxy}acetic acid], the IC50 at human CRTH2 [1] (setting [3]) and at human CRTH2 [2] (setting [4]) was < 0.5 µM each time.
Consider `CCOc1ccccc1-n1cc(C(=O)c2cc(Br)ccc2OCC(=O)O)cn1` [D41, {4-Bromo-2-[1-(2-ethoxyphenyl)-1H-pyrazole-4-carbonyl]phenoxy}acetic acid], for which the IC50 at human CRTH2 [1] (setting [3]) and at human CRTH2 [2] (setting [4]) was < 0.5 µM each time.
`CCOc1ccccc1-n1cc(C(=O)c2cc(Br)ccc2OC(C)C(=O)O)cn1` (centres unmarked) [D48, 2-{4-Bromo-2-[1-(2-ethoxyphenyl)-1H-pyrazole-4-carbonyl]phenoxy}propionic acid]: the IC50 at human CRTH2 [1] (setting [3]) and on human CRTH2 [2] (setting [4]) was < 0.5 µM in each case.
Take `O=C(O)COc1ccc([N+](=O)[O-])cc1C(=O)c1cnn(-c2ccccc2)c1` [D20, 4-Nitro-2-(1-phenyl-1H-pyrazole-4-carbonyl)phenoxyacetic acid]: the IC50 on human CRTH2 [1] (setting [3]) and at human CRTH2 [2] (setting [4]) was < 0.5 µM in each case.
Take `O=C(O)COc1ccc(Br)cc1CC1SC(=O)N(Cc2ccc(Cl)cc2)C1=O` (centres unmarked) [D141, 4-Bromo-2-[3-(4-chlorobenzyl)-2,4-dioxothiazolidin-5-ylmethyl]phenoxyacetic acid]: the IC50 on human CRTH2 [1] (setting [3]) and on human CRTH2 [2] (setting [4]) was < 0.5 µM each time.
`Cc1ccc(CN2C(=O)SC(Cc3cc(Br)ccc3OCC(=O)O)C2=O)cc1` (centres unmarked) [D142, 4-Bromo-2-[3-(4-methylbenzyl)-2,4-dioxothiazolidin-5-ylmethyl]phenoxyacetic acid]: the IC50 on human CRTH2 [1] (setting [3]) and on human CRTH2 [2] (setting [4]) was < 0.5 µM in each case.
With `COc1ccc(-c2nc(-c3cc(Br)ccc3OCC(=O)O)co2)cc1` [D84, {4-Bromo-2-[2-(4-methoxyphenyl)oxazol-4-yl]phenoxy}acetic acid], the IC50 was 0.5 to 5 µM at human CRTH2 [1] (setting [3]) and < 0.5 µM at human CRTH2 [2] (setting [4]).
Take `O=C(O)COc1ccc(Br)cc1C(=O)c1cnn(-c2ccccc2Cl)c1` [D14, 4-Bromo-2-[1-(2-chloro-phenyl)-1H-pyrazole-4-carbonyl]phenoxyacetic acid]: the IC50 on human CRTH2 [1] (setting [3]) was < 0.5 µM; at human CRTH2 [2] (setting [4]), > 5 µM.
The corresponding values for `O=C(O)COc1ccc(Br)cc1C(=O)c1cnn(-c2ccccn2)c1` [D6, 4-Bromo-2-(1-pyridin-2-yl-1H-pyrazole-4-carbonyl)phenoxyacetic acid] are < 0.5 µM and < 0.5 µM.
Consider `O=C(O)COc1ccc(Br)cc1C=NNc1ccccn1` [D151], for which the IC50 was > 5 µM on human CRTH2 [1] (setting [3]) and < 0.5 µM on human CRTH2 [2] (setting [4]).
In the case of `O=C(O)COc1ccc(Br)cc1-c1noc(-c2ccccc2Cl)n1` [D137, {4-Bromo-2-[5-(2-chlorophenyl)-[1,2,4]oxadiazol-3-yl]phenoxy}acetic acid], the IC50 at human CRTH2 [1] (setting [3]) and at human CRTH2 [2] (setting [4]) was < 0.5 µM each time.
As for `O=C(O)COc1ccc(Br)cc1C(=O)c1cc(-c2c(Cl)cccc2Cl)no1` [D98, {4-Bromo-2-[3-(2,6-dichloro-phenyl)isoxazole-5-carbonyl]phenoxy}acetic acid], the IC50 on human CRTH2 [2] (setting [4]) was < 0.5 µM.
